In patent US10758534B2 (Vertex Pharmaceuticals Incorporated, priority 2014, dated 2020) one finds EC30 data, which are given here for 30 compounds.

In general, EC30 refers to the concentration needed for an effect of 30%.

Molecules are shown by their SMILES.

The target of the first assay is T1, F508del (Homo sapiens, UniProt P13569, DEL508-508).
T1 construct: expressed in transfected cells
T1 sequence (P13569 with tags, fused parts or gaps DEL508-508): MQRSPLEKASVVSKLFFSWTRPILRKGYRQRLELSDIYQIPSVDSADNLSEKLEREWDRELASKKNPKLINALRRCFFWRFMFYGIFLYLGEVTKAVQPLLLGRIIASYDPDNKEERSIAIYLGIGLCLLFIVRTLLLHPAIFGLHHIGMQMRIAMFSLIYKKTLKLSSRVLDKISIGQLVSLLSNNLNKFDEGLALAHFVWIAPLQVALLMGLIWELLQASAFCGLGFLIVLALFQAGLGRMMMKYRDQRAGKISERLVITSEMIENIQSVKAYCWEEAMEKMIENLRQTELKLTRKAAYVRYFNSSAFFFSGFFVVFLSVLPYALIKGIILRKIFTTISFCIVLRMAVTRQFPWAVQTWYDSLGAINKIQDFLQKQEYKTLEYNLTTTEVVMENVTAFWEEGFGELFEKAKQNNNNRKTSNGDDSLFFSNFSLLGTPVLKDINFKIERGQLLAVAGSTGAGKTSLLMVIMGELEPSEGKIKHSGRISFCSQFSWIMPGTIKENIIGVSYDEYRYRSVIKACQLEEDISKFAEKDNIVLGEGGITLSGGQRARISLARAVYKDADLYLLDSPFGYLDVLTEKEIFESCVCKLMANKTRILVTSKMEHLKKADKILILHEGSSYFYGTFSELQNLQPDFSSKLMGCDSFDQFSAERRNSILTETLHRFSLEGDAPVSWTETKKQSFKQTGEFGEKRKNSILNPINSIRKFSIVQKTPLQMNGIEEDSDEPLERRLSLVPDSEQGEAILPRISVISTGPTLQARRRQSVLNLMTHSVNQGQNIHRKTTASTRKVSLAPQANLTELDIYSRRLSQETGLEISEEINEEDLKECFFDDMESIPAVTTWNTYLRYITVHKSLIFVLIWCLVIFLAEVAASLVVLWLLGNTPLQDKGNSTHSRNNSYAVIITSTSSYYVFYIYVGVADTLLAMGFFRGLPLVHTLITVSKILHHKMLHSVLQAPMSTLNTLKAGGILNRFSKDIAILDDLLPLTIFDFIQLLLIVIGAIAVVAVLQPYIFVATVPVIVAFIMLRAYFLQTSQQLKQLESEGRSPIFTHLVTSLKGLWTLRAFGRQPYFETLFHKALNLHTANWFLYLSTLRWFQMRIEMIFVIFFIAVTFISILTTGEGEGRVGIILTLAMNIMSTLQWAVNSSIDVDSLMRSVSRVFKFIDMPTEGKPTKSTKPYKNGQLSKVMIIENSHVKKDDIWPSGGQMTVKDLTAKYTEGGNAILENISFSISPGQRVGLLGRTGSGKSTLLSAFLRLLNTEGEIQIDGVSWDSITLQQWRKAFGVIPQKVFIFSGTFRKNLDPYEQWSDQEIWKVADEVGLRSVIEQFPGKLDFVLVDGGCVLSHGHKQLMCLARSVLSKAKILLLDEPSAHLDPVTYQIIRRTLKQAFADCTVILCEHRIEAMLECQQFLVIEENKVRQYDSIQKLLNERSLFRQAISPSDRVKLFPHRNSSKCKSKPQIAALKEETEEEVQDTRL
Put plainly: Protocol 2: FRET membrane potential optical assay (VIPR), identification of correction compounds. It counts as cell-based. To be noted: F508del CFTR modulator activity; compounds of Table 1; read-out: EC30. The method, boiled down: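 NIH3T3 mouse fibroblasts stably expressing F508del-CFTR incubated with compound 16 h at 37 °C in serum-free medium, then loaded with CC2-DMPE/DiSBAC2(3) FRET dyes. Channel activated with 10 μM forskolin plus 20 μM genistein in Cl⁻-free (gluconate) bath; depolarisation from Cl⁻ efflux read on VIPR II.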
With `CC1CN(c2ncccc2C(=O)NS(=O)(=O)c2cccc(N3CCC(Cc4ccccc4)CC3)n2)C(C)(C)C1` (stereo not drawn) [Compound 2107, N—[[6-(4-benzyl-1-piperidyl)-2-pyridyl]sulfonyl]-2-(2,2,4-trimethylpyrrolidin-1-yl)pyridine-3-carboxamide], the concentration for an effect of 30% (EC30) is less than 3000 nM.

Take `COc1ccc(CCNc2cccc(S(=O)(=O)NC(=O)c3cccnc3N3CC(C)CC3(C)C)n2)cc1` (stereo not drawn) [Compound 2072, N—[[6-[2-(4-methoxyphenyl)ethylamino]-2-pyridyl]sulfonyl]-2-(2,2,4-trimethylpyrrolidin-1-yl)pyridine-3-carboxamide]: the concentration for an effect of 30% (EC30) fell in the range of 3000 to 10000 nM.

As for `CC1CN(c2ncccc2C(=O)NS(=O)(=O)c2cccc(Nc3ccc(-c4cnco4)cc3)n2)C(C)(C)C1` (stereo not drawn) [Compound 2546, N—[[6-(4-oxazol-5-ylanilino)-2-pyridyl]sulfonyl]-2-(2,2,4-trimethylpyrrolidin-1-yl)pyridine-3-carboxamide], the 30% effect concentration (EC30) is less than 3000 nM.

As to `CC1CN(c2ncccc2C(=O)NS(=O)(=O)c2cccc(Oc3c(F)cc(F)cc3F)n2)C(C)(C)C1` (stereo not drawn) [Compound 2654, N—[[6-(2,4,6-trifluorophenoxy)-2-pyridyl]sulfonyl]-2-(2,2,4-trimethylpyrrolidin-1-yl)pyridine-3-carboxamide], the EC30 is less than 3000 nM.

In the case of `CC(C)COc1cc(F)cc(-c2ccc(C(=O)NS(=O)(=O)c3cccc(N)n3)c(N3CC4CC(C3)C4C)n2)c1` (stereo not drawn) [Compound 2224, N-[(6-amino-2-pyridyl)sulfonyl]-6-(3-fluoro-5-isobutoxy-phenyl)-2-(6-methyl-3-azabicyclo[3.1.1]heptan-3-yl)pyridine-3-carboxamide], the EC30 is less than 3000 nM.

Turning to `C[C@@H]1CN(c2nc(-c3ccccc3F)ccc2C(=O)NS(=O)(=O)c2ccc[nH]c2=O)C(C)(C)C1` [Compound 2542, 6-(2-fluorophenyl)-N-[(2-oxo-1H-pyridin-3-yl)sulfonyl]-2-[(4S)-2,2,4-trimethylpyrrolidin-1-yl]pyridine-3-carboxamide], the EC30 is less than 3000 nM.

As to `CC1CN(c2ncccc2C(=O)NS(=O)(=O)c2cccc(OCC(C)(C)n3cccc3)n2)C(C)(C)C1` (stereo not drawn) [Compound 2137, N—[[6-(2-methyl-2-pyrrol-1-yl-propoxy)-2-pyridyl]sulfonyl]-2-(2,2,4-trimethylpyrrolidin-1-yl)pyridine-3-carboxamide], the EC30 was less than 3000 nM.

For the compound `CC1CN(c2ncccc2C(=O)NS(=O)(=O)c2cccc(N3CCCC3C)n2)C(C)(C)C1` (stereo not drawn) [Compound 2609, N—[[6-(2-methylpyrrolidin-1-yl)-2-pyridyl]sulfonyl]-2-(2,2,4-trimethylpyrrolidin-1-yl)pyridine-3-carboxamide], the 30% effect concentration (EC30) is less than 3000 nM.

The assay is the same for the next values; noted with them: Table 3; compounds of Table 1 as modulators of CFTR activity; protocol not stated.
For the compound `Cc1cc(C)c(Oc2nc3c(C)cccc3cc2C(=O)NS(=O)(=O)c2cccc(N)n2)c(C)c1` [Compound 70, N-[(6-amino-2-pyridyl)sulfonyl]-8-methyl-2-(2,4,6-trimethylphenoxy)quinoline-3-carboxamide], the concentration for an effect of 30% (EC30) entry is listed as “+++ (“+++” means <3 uM)”.

As for `COCCNc1cccc(S(=O)(=O)NC(=O)c2ccc(C)nc2Oc2c(C)cc(C)cc2C)n1` [Compound 372, N-[[6-(2-methoxyethylamino)-2-pyridyl]sulfonyl]-6-methyl-2-(2,4,6-trimethylphenoxy)pyridine-3-carboxamide], the EC30 entry is “++ (“++” means between 3 uM and 10 uM)”.

Consider `Cc1ccc(-c2nc(C(C)(C)C)ccc2C(=O)NS(=O)(=O)c2cccc(N)c2)cc1C` [Compound 274, N-(3-aminophenyl)sulfonyl-6-tert-butyl-2-(3,4-dimethylphenyl)pyridine-3-carboxamide], for which the EC30 result was “+++ (“+++” means <3 uM)”.

`CC(C)Oc1ccc(-c2ccc(C(=O)NS(=O)(=O)c3ccn[nH]3)c(N3CCC[C@H](c4ccccc4)C3)n2)cn1` [Compound 741, 6-(6-isopropoxy-3-pyridyl)-2-[(3R)-3-phenyl-1-piperidyl]-N-(1H-pyrazol-5-ylsulfonyl)pyridine-3-carboxamide]: the concentration for an effect of 30% (EC30) entry is listed as “+++ (“+++” means <3 uM)”.

`Cc1cc(C)c(Cn2c(C(=O)NS(=O)(=O)c3cccc(N)c3)cc3c(Cl)cccc32)c(C)c1` [Compound 362, N-(3-aminophenyl)sulfonyl-4-chloro-1-[(2,4,6-trimethylphenyl)methyl]indole-2-carboxamide]: the EC30 entry was “+++ (“+++” means <3 uM)”.

Turning to `CC(c1ccccc1)n1c(C(=O)NS(=O)(=O)c2cccc(N)c2)cc2c(F)cccc21` (stereo not drawn) [Compound 186, N-(3-aminophenyl)sulfonyl-4-fluoro-1-(1-phenylethyl)indole-2-carboxamide], the 30% effect concentration (EC30) result is given as “+++ (“+++” means <3 uM)”.

Turning to `CC(C)Oc1cncc(-c2ccc(C(=O)NS(=O)(=O)c3cccc(N)n3)c(N3[C@H](C)CC[C@@H]3C)n2)c1` [Compound 400, N-[(6-amino-2-pyridyl)sulfonyl]-2-[(2S,5R)-2,5-dimethylpyrrolidin-1-yl]-6-(5-isopropoxy-3-pyridyl)pyridine-3-carboxamide], the EC30 entry is “++ (“++” means between 3 uM and 10 uM)”.

On to `Cc1cc(C)c(CN2Cc3ccccc3C2C(=O)NS(=O)(=O)c2ccncc2)c(C)c1` (stereo not drawn) [Compound 94, N-(4-pyridylsulfonyl)-2-[(2,4,6-trimethylphenyl)methyl]isoindoline-1-carboxamide], for which the EC30 entry was “+++ (“+++” means <3 uM)”.

Consider `Cc1cc(C)c(Oc2nc(-c3cccc4c3OCO4)ccc2C(=O)NS(=O)(=O)c2ccc[nH]c2=O)c(C)c1` [Compound 525, 6-(1,3-benzodioxol-4-yl)-N-[(2-oxo-1H-pyridin-3-yl)sulfonyl]-2-(2,4,6-trimethylphenoxy)pyridine-3-carboxamide], for which the EC30 result is “++ (“++” means between 3 uM and 10 uM)”.

Regarding `CC(C)COc1cc(F)cc(-c2ccc(C(=O)NS(=O)(=O)c3cccc(N)n3)c(Oc3ccccc3)n2)c1` [Compound 376, N-[(6-amino-2-pyridyl)sulfonyl]-6-(3-fluoro-5-isobutoxy-phenyl)-2-phenoxy-pyridine-3-carboxamide], the EC30 result is recorded as “+++ (“+++” means <3 uM)”.

For the compound `Cc1cc(C)c(Cn2nc(C(C)(C)C)c(C)c2C(=O)NS(=O)(=O)c2cccc(N)n2)c(C)c1` [Compound 356, N-[(6-amino-2-pyridyl)sulfonyl]-5-tert-butyl-4-methyl-2-[(2,4,6-trimethylphenyl)methyl]pyrazole-3-carboxamide], the EC30 result was “+++ (“+++” means <3 uM)”.

With `Cc1cc(C)c(Oc2nc(C(C)(C)C)ccc2C(=O)NS(=O)(=O)c2ccccn2)c(C)c1` [Compound 222, 6-tert-butyl-N-(2-pyridylsulfonyl)-2-(2,4,6-trimethylphenoxy)pyridine-3-carboxamide], the EC30 entry was “+++ (“+++” means <3 uM)”.

In the case of `Cc1cccc(C)c1Cn1c(C(=O)NS(=O)(=O)c2cccc(N)c2)cc2ccccc21` [Compound 331, N-(3-aminophenyl)sulfonyl-1-[(2,6-dimethylphenyl)methyl]indole-2-carboxamide], the EC30 result is reported as “+++ (“+++” means <3 uM)”.

Take `Cc1cc(C)c(Oc2nc(C)ccc2C(=O)NS(=O)(=O)c2cccc(N)c2)c(C)c1` [Compound 13, N-(3-aminophenyl)sulfonyl-6-methyl-2-(2,4,6-trimethylphenoxy)pyridine-3-carboxamide]: the EC30 result is “++ (“++” means between 3 uM and 10 uM)”.

Consider `CC(C)COc1ccc(-c2ccc(C(=O)NS(=O)(=O)c3cccc(N)n3)c(N3[C@H](C)CC[C@@H]3C)n2)cc1` [Compound 563, N-[(6-amino-2-pyridyl)sulfonyl]-2-[(2S,5R)-2,5-dimethylpyrrolidin-1-yl]-6-(4-isobutoxyphenyl)pyridine-3-carboxamide], for which the EC30 entry was “+++ (“+++” means <3 uM)”.

As for `Cc1cc(F)cc(-c2nc(C(C)(C)C)ccc2C(=O)NS(=O)(=O)c2cccc(N)c2)c1` [Compound 237, N-(3-aminophenyl)sulfonyl-6-tert-butyl-2-(3-fluoro-5-methyl-phenyl)pyridine-3-carboxamide], the EC30 result was “++ (“++” means between 3 uM and 10 uM)”.

Consider `Cc1cc(C)c(Oc2nc(-c3cc(F)ccc3F)ccc2C(=O)NS(=O)(=O)c2ccc[nH]c2=O)c(C)c1` [Compound 545, 6-(2,5-difluorophenyl)-N-[(2-oxo-1H-pyridin-3-yl)sulfonyl]-2-(2,4,6-trimethylphenoxy)pyridine-3-carboxamide], for which the concentration for an effect of 30% (EC30) result is “++ (“++” means between 3 uM and 10 uM)”.

For the compound `Cc1cc(C)c(Oc2nc(-c3ccc(F)cc3O)ccc2C(=O)NS(=O)(=O)c2cccc(N)n2)c(C)c1` [Compound 622, N-[(6-amino-2-pyridyl)sulfonyl]-6-(4-fluoro-2-hydroxy-phenyl)-2-(2,4,6-trimethylphenoxy)pyridine-3-carboxamide], the EC30 entry is listed as “+++ (“+++” means <3 uM)”.

For `CCC(c1ccccc1)n1nc(C(C)(C)C)cc1C(=O)NS(=O)(=O)c1cccc(N)c1` (stereo not drawn) [Compound 165, N-(3-aminophenyl)sulfonyl-5-tert-butyl-2-(1-phenylpropyl)pyrazole-3-carboxamide], the EC30 result was “+++ (“+++” means <3 uM)”.

As to `Cc1c(Cn2nc(C(C)(C)C)cc2C(=O)NS(=O)(=O)c2cccc3[nH]ccc23)cccc1C(F)(F)F` [Compound 60, 5-tert-butyl-N-(1H-indol-4-ylsulfonyl)-2-[[2-methyl-3-(trifluoromethyl)phenyl]methyl]pyrazole-3-carboxamide], the EC30 result was “+++ (“+++” means <3 uM)”.

For `CC(C)Oc1ccc(-c2ccc(C(=O)NS(=O)(=O)c3cccc(N)n3)c(N3CCC(c4ccccc4)C3C)n2)cn1` (stereo not drawn) [Compound 625, N-[(6-amino-2-pyridyl)sulfonyl]-6-(6-isopropoxy-3-pyridyl)-2-(2-methyl-3-phenyl-pyrrolidin-1-yl)pyridine-3-carboxamide], the EC30 result was “+++ (“+++” means <3 uM)”.

For the compound `CC(C)(C)c1cc(C(=O)NS(=O)(=O)c2ccccc2)n(Cc2c(Cl)cc(Cl)cc2Cl)n1` [Compound 145, N-(benzenesulfonyl)-5-tert-butyl-2-[(2,4,6-trichlorophenyl)methyl]pyrazole-3-carboxamide], the EC30 entry was “+++ (“+++” means <3 uM)”.
